42 compounds from patent publication US20060217418A1, “Substituted alkyl amido piperidines” (priority 2001, published 2006) can be followed below.

The target in the test is T1, rat MCH1 receptor (Rattus norvegicus, UniProt P97639).
T1 construct: operatively linked to DNA encoding the rat MCH1 receptor so as to permit expression thereof; expressed in transfected cells; host or cells: Human embryonic kidney Peak rapid 293 (Peakr293) cells, transient calcium phosphate transfection, membranes
T1 sequence (P97639 whole entry): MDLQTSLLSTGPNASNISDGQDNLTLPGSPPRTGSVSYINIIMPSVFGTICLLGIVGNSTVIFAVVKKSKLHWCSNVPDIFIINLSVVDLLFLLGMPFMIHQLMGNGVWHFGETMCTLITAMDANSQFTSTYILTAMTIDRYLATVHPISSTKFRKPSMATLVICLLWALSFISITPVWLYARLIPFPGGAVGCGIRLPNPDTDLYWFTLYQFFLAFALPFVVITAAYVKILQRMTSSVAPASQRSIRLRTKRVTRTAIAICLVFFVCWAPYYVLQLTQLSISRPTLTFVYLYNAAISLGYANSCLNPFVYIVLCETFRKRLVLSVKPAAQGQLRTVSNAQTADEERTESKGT
As to the kind of experiment: Radioligand binding assay at cloned rat MCH1 receptor ([3H]Compound A). The settings on record: cloned rat MCH1, Peakr293 cell membranes, 0.08 nM [3H]Compound A, 25° C., 90 minutes; read-out: Ki(MCH-1).
Usually Ki stands for the dissociation constant of the complex between target and ligand, obtained from inhibition or displacement. Consider `CC(C)C(=O)Nc1cccc(C2CCN(CCCNC(=O)C(C)(c3ccccc3)c3ccccc3)CC2)n1` [Example 83], for which the Ki was found to be 10.3 nM.

Consider `Cc1ccc(NC(=O)C(C)C)cc1C1CCN(CCCNC(=O)C2(c3ccc(Cl)cc3)CCCCC2)CC1` [Example 85], for which the inhibitory constant (Ki) is 4.6 nM.

Take `CCC(=O)Nc1cccc(C2CCN(CCCNC(=O)C(c3ccc(F)cc3)c3ccc(F)cc3)CC2)c1` [Example 21, N-{3-[1-(3-{[2,2-BIS(4-FLUOROPHENYL)ACETYL]AMINO}PROPYL)-4-PIPERIDINYL] PHENYL}PROPANAMIDE]: the Ki amounted to 0.7 nM.

As to `CC(C)C(=O)Nc1cccc(C2CCN(CCCNC(=O)C3(c4ccc(Cl)cc4)CCCCC3)CC2)c1` [Example 45, 1-(4-CHLOROPHENYL)-N-(3-{4-[3-(ISOBUTYRYLAMINO)PHENYL]-1-PIPERIDINYL} PROPYL)CYCLOHEXANECARBOXAMIDE], the Ki turned out to be 4 nM.

Consider `CC(=O)Nc1cccc(C2CCN(CCCNC(=O)C3(c4ccc(Cl)cc4)CCC3)CC2)c1` [Example 74, N-(3-{4-[3-(ACETYLAMINO)PHENYL]-1-PIPERIDINYL}PROPYL)-1-(4-CHLOROPHENYL) CYCLOBUTANECARBOXAMIDE], for which the Ki was found to be 34.3 nM.

As to `COc1ccc(NC(=O)C(C)C)cc1C1CCN(CCCNC(=O)C(c2ccccc2)c2ccccc2)CC1` [Example 20], the inhibition constant (Ki) came to 90.5 nM.

Consider `CCCC(=O)Nc1ccc(OC)c(C2CCN(CCCNC(=O)C(c3ccccc3)c3ccccc3)CC2)c1` [Example 22], for which the inhibition constant Ki is 136 nM.

With `CC(C)C(=O)Nc1c(F)cc(F)c(C2CCN(CCCNC(=O)C(c3ccc(F)cc3)c3ccc(F)cc3)CC2)c1F` [Example 173, N-{3-[1-(3-{[bis(4-fluorophenyl)acetyl]amino}propyl)-4-piperidinyl]-2,4,6-trifluorophenyl}-2-methylpropanamide], the inhibition constant (Ki) worked out at 2.5 nM.

`CC(C)C(=O)Nc1ccc(C2CCN(CCCNC(=O)C(c3ccccc3)c3ccccc3)CC2)cc1` [Example 148]: the Ki was found to be 144 nM.

For `CCCC(=O)Nc1cccc(C2CCN(CCCNC(=O)C3(c4ccc(Cl)cc4)CCCC3)CC2)c1` [Example 102, N-(3-{4-[3-(BUTYRYLAMINO)PHENYL]-1-PIPERIDINYL}PROPYL)-1-(4-CHLOROPHENYL) CYCLOPENTANECARBOXAMIDE], the Ki stood at 7.9 nM.

With `CC(C)C(=O)Nc1cc(C2CCN(CCCNC(=O)C(C)(C)c3ccc(Cl)cc3)CC2)ccc1F` [Example 49], the Ki stood at 14.8 nM.

As for `CCCC(=O)Nc1cccc(C2CCN(CCCNC(=O)C(c3ccccc3)c3ccccc3)CC2)c1` [Example 5], the Ki worked out at 3.1 nM.

On to `O=C(Nc1cccc(C2CCN(CCCNC(=O)C(c3ccccc3)c3ccccc3)CC2)c1)OCc1ccccc1` [Example 140, Benzyl 3-(1-{3-[(Diphenylacetyl)Amino]Propyl}-4-Piperidinyl)Phenylcarbamate], for which the Ki was 180 nM.

On to `CC(C)C(=O)Nc1cccc(C2CCN(CCCNC(=O)C3(c4ccc(Cl)cc4)CCC3)CC2)c1` [Example 43, 1-(4-CHLOROPHENYL)-N-(3-{4-[3-(ISOBUTYRYLAMINO)PHENYL]-1-PIPERIDINYL} PROPYL)CYCLOBUTANECARBOXAMIDE], for which the inhibition constant (Ki) came to 13.7 nM.

`CCCC(=O)Nc1cccc(C2CCN(CCCNC(=O)C(C)(c3ccccc3)c3ccccc3)CC2)c1` [Example 98, N-[3-(1-{3-[(2,2-DIPHENYLPROPANOYL)AMINO]PROPYL}-4-PIPERIDINYL)PHENYL] BUTANAMIDE]: the Ki came to 4.3 nM.

Turning to `CC(C)C(=O)Nc1cccc(C2CCN(CCCNC(=O)C3(c4ccc(F)cc4)CCCC3)CC2)c1` [Example 36, 1-(4-FLUOROPHENYL)-N-(3-{4-[3-(ISOBUTYRYLAMINO)PHENYL]-1-PIPERIDINYL} PROPYL)CYCLOPENTANECARBOXAMIDE], the Ki is 11 nM.

Take `CC(C)C(=O)Nc1cccc(C2CCN(CCCNC(=O)C(c3ccc(Cl)cc3)c3ccc(Cl)cc3)CC2)n1` [Example 50]: the Ki was determined as 1.9 nM.

For the compound `O=C(Nc1cccc(C2CCN(CCCNC(=O)C3(c4ccc(Cl)cc4)CCCC3)CC2)c1)C1CC1` [Example 112], the Ki is 3.2 nM.

Consider `Cc1ccc(NC(=O)C(C)C)cc1C1CCN(CCCNC(=O)C(C)(C)c2ccc(Cl)cc2)CC1` [Example 91], for which the Ki came out at 2.9 nM.

As for `CC(=O)Nc1cccc(C2CCN(CCCNC(=O)C(c3ccc(F)cc3)c3ccc(F)cc3)CC2)c1` [Example 28, N-(3-{4-[3-(acetylamino)phenyl]-1-piperidinyl}propyl)-2,2-bis(4-fluorophenyl)acetamide], the inhibition constant (Ki) came out at 0.4 nM.

For the compound `CCC(=O)Nc1cccc(C2CCN(CCCNC(=O)C(Br)c3ccccc3)CC2)c1` (stereo not drawn) [Example 10, N-[3-(1-{3-[(2-BROMO-2-PHENYLACETYL)AMINO]PROPYL}-4-PIPERIDINYL) PHENYL]PROPANAMIDE], the Ki turned out to be 83 nM.

With `O=C(CC(c1ccccc1)c1ccccc1)NCCCN1CCC(c2cccc(NC(=O)C3CC3)c2)CC1` [Example 151, N-[3-(1-{3-[(3,3-DIPHENYLPROPANOYL)AMINO]PROPYL}-4-PIPERIDINYL)PHENYL] CYCLOPROPANECARBOXAMIDE], the Ki was found to be 62 nM.

Turning to `CCC(=O)Nc1cccc(C2CCN(CCCNC(=O)C(c3ccc(Cl)cc3)c3ccc(Cl)cc3)CC2)c1` [Example 57, N-{3-[1-(3-{[2,2-BIS(4-CHLOROPHENYL)ACETYL]AMINO}PROPYL)-4-PIPERIDINYL] PHENYL}PROPANAMIDE], the inhibitory constant (Ki) was 0.5 nM.

As to `CCCC(=O)Nc1cc(C2CCN(CCCNC(=O)C(c3ccc(F)cc3)c3ccc(F)cc3)CC2)ccc1F` [Example 104], the Ki worked out at 0.9 nM.

Consider `Cc1ccc(NC(=O)C(C)C)cc1C1CCN(CCCNC(=O)C2(c3ccc(F)cc3)CCCC2)CC1` [Example 93], for which the Ki was 4.9 nM.

As to `CCCC(=O)Nc1ccc(C2CCN(CCCNC(=O)C(c3ccccc3)c3ccccc3)CC2)cc1` [Example 149], the Ki is 467 nM.

As for `CC(C(=O)NCCCN1CCC(c2cccc(NC(=O)C3CC3)c2)CC1)c1ccc(Cl)cc1` (stereo not drawn) [Example 116, N-{3-[1-(3-{[2-(4-CHLOROPHENYL)PROPANOYL]AMINO}PROPYL)-4-PIPERIDINYL] PHENYL}CYCLOPROPANECARBOXAMIDE], the Ki came out at 18.9 nM.

Regarding `CC(C)C(=O)Nc1cc(C2CCN(CCCNC(=O)C3(c4ccc(Cl)cc4)CC3)CC2)ccc1F` [Example 47], the Ki amounted to 25.6 nM.

Take `Cc1ccc(NC(=O)C(C)C)cc1C1CCN(CCCNC(=O)[C@@H](C)c2ccccc2)CC1` [Example 161, 2-methyl-N-{4-methyl-3-[1-(3-{[(2S)-2-phenylpropanoyl]amino}propyl)-4-piperidinyl]phenyl} propanamide]: the Ki came to 24.4 nM.

With `CC(C)(C)C(=O)Nc1cccc(C2CCN(CCCNC(=O)C(c3ccccc3)c3ccccc3)CC2)c1` [Example 18], the Ki is 31.5 nM.

For `CC(C)C(=O)Nc1ccc(F)c(C2CCN(CCCNC(=O)C3(c4ccc(F)cc4Cl)CCCC3)CC2)c1` [Example 137, 1-(2-CHLORO-4-FLUOROPHENYL)-N-(3-{4-[2-FLUORO-5-(ISOBUTYRYLAMINO) PHENYL]-1-PIPERIDINYL}PROPYL)CYCLOPENTANECARBOXAMIDE], the inhibition constant Ki turned out to be 11.8 nM.

In the case of `O=C(Nc1cccc(C2CCN(CCCNC(=O)C(c3ccc(Cl)cc3)c3ccc(Cl)cc3)CC2)c1)C1CC1` [Example 113, N-{3-[1-(3-{[2,2-BIS(4-CHLOROPHENYL)ACETYL]AMINO}PROPYL)-4-PIPERIDINYL] PHENYL}CYCLOPROPANECARBOXAMIDE], the Ki is 0.8 nM.

In the case of `CCC(=O)Nc1cccc(C2CCN(CCCNC(=O)C(CC)(c3ccccc3)c3ccccc3)CC2)c1` [Example 15, 2,2-DIPHENYL-N-(3-{4-[3-(PROPIONYLAMINO)PHENYL]-1-PIPERIDINYL}PROPYL) BUTANAMIDE], the Ki was 8.9 nM.

Take `CCCC(=O)Nc1cccc(C2CCN(CCCNC(=O)C(C)c3ccc(Cl)cc3)CC2)c1` (stereo not drawn) [Example 77, N-{3-[1-(3-{[2-(4-CHLOROPHENYL)PROPANOYL]AMINO}PROPYL)-4-PIPERIDINYL] PHENYL}BUTANAMIDE]: the Ki came out at 30.7 nM.

As for `CCCC(=O)Nc1cccc(C2CCN(CCCNC(=O)C3(c4ccc(F)cc4)CCCCC3)CC2)c1` [Example 87, N-(3-{4-[3-(BUTYRYLAMINO)PHENYL]-1-PIPERIDINYL}PROPYL)-1-(4-FLUOROPHENYL) CYCLOHEXANECARBOXAMIDE], the Ki worked out at 6.4 nM.

Consider `CCCC(=O)Nc1ccc(OC)c(C2CCN(CCCNC(=O)C(c3ccc(F)cc3)c3ccc(F)cc3)CC2)c1` [Example 26], for which the Ki is 18.7 nM.

`CC(C)C(=O)Nc1c(F)cc(F)c(C2CCN(CCCNC(=O)C(c3ccccc3)c3ccccc3)CC2)c1F` [Example 171, N-[3-(1-{3-[(diphenylacetyl)amino]propyl}-4-piperidinyl)-2,4,6-trifluorophenyl]-2-methylpropanamide]: the Ki is 9.1 nM.

For the compound `CC(=O)Nc1cccc(C2CCN(CCCNC(=O)C(c3ccccc3)(c3ccccc3)c3ccccc3)CC2)c1` [Example 105, N-(3-{4-[3-(ACETYLAMINO)PHENYL]-1-PIPERIDINYL}PROPYL)-2,2,2-TRIPHENYL ACETAMIDE], the Ki is 2.8 nM.

Take `CC[C@H](C(=O)NCCCN1CCC(c2cc(NC(=O)C(C)C)ccc2C)CC1)c1ccccc1` [Example 163, (2S)-N-(3-{4-[5-(isobutyrylamino)-2-methylphenyl]-1-piperidinyl}propyl)-2-phenylbutanamide]: the inhibition constant Ki was 20 nM.

As for `CC(C)OC(=O)Nc1cccc(C2CCN(CCCNC(=O)C(C)(C)c3ccc(Cl)cc3)CC2)c1` [Example 142, Isopropyl 3-[1-(3-{[2-(4-Chlorophenyl)-2-Methylpropanoyl]Amino}Propyl)-4-Piperidinyl]Phenyl carbamate], the Ki is 77.4 nM.

As to `CC(=O)Nc1cccc(C2CCN(CCCNC(=O)C3(c4ccc(F)cc4)CCCCC3)CC2)c1` [Example 70, N-(3-{4-[3-(ACETYLAMINO)PHENYL]-1-PIPERIDINYL}PROPYL)-1-(4-FLUORO PHENYL)CYCLOHEXANECARBOXAMIDE], the Ki amounted to 26.7 nM.

Turning to `CCCC(=O)Nc1cccc(C2CCN(CCCNC(=O)C3(c4ccc(F)cc4)CCCC3)CC2)c1` [Example 101, N-(3-{4-[3-(BUTYRYLAMINO)PHENYL]-1-PIPERIDINYL}PROPYL)-1-(4-FLUOROPHENYL) CYCLOPENTANECARBOXAMIDE], the inhibition constant (Ki) was found to be 11.2 nM.
